Results reported in ChEMBL document CHEMBL4428075, “New antiproliferative 7-(4-(N-substituted carbamoylmethyl)piperazin-1-yl) derivatives of ciprofloxacin induce cell cycle arrest at G2/M phase” (Bioorg Med Chem, 2016).

Experiments:
HCT-15 = experiment: Antiproliferative activity against human HCT15 cells at 10^-5 M after 48 hrs by SRB assay; assay type: functional; conditions: HCT-15, 48 h, read-out: GI
RPMI-8226 = experiment: Antiproliferative activity against human RPMI8226 cells at 10^-5 M after 48 hrs by SRB assay; assay type: functional; conditions: RPMI-8226, 48 h, read-out: GI
SW-620 = experiment: Antiproliferative activity against human SW620 cells at 10^-5 M after 48 hrs by SRB assay; assay type: functional; conditions: SW-620, 48 h, read-out: GI
KM12 = experiment: Antiproliferative activity against human KM12 cells at 10^-5 M after 48 hrs by SRB assay; assay type: functional; conditions: KM12, 48 h, read-out: GI
Hs-578T = experiment: Antiproliferative activity against human Hs 578T cells at 10^-5 M after 48 hrs by SRB assay; assay type: functional; conditions: read-out: GI
NCI-H23 = experiment: Antiproliferative activity against human NCI-H23 cells at 10^-5 M after 48 hrs by SRB assay; assay type: functional; conditions: NCI-H23, 48 h, read-out: GI
T47D = experiment: Antiproliferative activity against human T47D cells at 10^-5 M after 48 hrs by SRB assay; assay type: functional; conditions: read-out: GI
A549 [1] = experiment: Antiproliferative activity against human A549 cells after 24 hrs by BrdU incorporation assay; assay type: functional, cell-based; conditions: A549, 24 h
SK-MEL-28 = experiment: Antiproliferative activity against human SK-MEL-28 cells at 10^-5 M after 48 hrs by SRB assay; assay type: functional; conditions: SK-MEL-28, 48 h, read-out: GI
K562 = experiment: Antiproliferative activity against human K562 cells at 10^-5 M after 48 hrs by SRB assay; assay type: functional; conditions: K562, 48 h, read-out: GI
CAKI-1 = experiment: Antiproliferative activity against human Caki1 cells at 10^-5 M after 48 hrs by SRB assay; assay type: functional; conditions: CAKI-1, 48 h, read-out: GI
OVCAR-8 = experiment: Antiproliferative activity against human OVCAR8 cells at 10^-5 M after 48 hrs by SRB assay; assay type: functional; conditions: OVCAR-8, 48 h, read-out: GI
SK-OV-3 = experiment: Antiproliferative activity against human SKOV3 cells at 10^-5 M after 48 hrs by SRB assay; assay type: functional; conditions: SK-OV-3, 48 h, read-out: GI
MDA-MB-435 = experiment: Antiproliferative activity against human MDA-MB-435 cells at 10^-5 M after 48 hrs by SRB assay; assay type: functional; conditions: MDA-MB-435, 48 h, read-out: GI
HCC 2998 = experiment: Antiproliferative activity against human HCC2998 cells at 10^-5 M after 48 hrs by SRB assay; assay type: functional; conditions: HCC 2998, 48 h, read-out: GI
WI-38 [2] = experiment: Antiproliferative activity against human WI38 cells after 24 hrs by BrdU incorporation assay; assay type: cell-based; conditions: WI-38, 24 h
BT-549 = experiment: Antiproliferative activity against human BT549 cells at 10^-5 M after 48 hrs by SRB assay; assay type: functional; conditions: BT-549, 48 h, read-out: GI
IGROV-1 = experiment: Antiproliferative activity against human IGROV1 cells at 10^-5 M after 48 hrs by SRB assay; assay type: functional; conditions: IGROV-1, 48 h, read-out: GI
ACHN = experiment: Antiproliferative activity against human ACHN cells at 10^-5 M after 48 hrs by SRB assay; assay type: functional; conditions: read-out: GI
COLO 205 = experiment: Antiproliferative activity against human COLO205 cells at 10^-5 M after 48 hrs by SRB assay; assay type: functional; conditions: COLO 205, 48 h, read-out: GI
SF-539 = experiment: Antiproliferative activity against human SF539 cells at 10^-5 M after 48 hrs by SRB assay; assay type: functional; conditions: SF-539, 48 h, read-out: GI
EKVX = experiment: Antiproliferative activity against human EKVX cells at 10^-5 M after 48 hrs by SRB assay; assay type: functional; conditions: read-out: GI
TK-10 = experiment: Antiproliferative activity against human TK10 cells at 10^-5 M after 48 hrs by SRB assay; assay type: functional; conditions: TK-10, 48 h, read-out: GI
A549 [3] = experiment: Induction of cell cycle arrest in human A549 cells assessed as accumulation at sub G1 phase at 5 uM after 24 hrs by FITC-labeled anti-BrdU antibody/7AAD staining based FACS calibur flow cytometric analysis (reference value: 0.82 %); assay type: functional
A549 [4] = experiment: Downregulation of cdc2 expression in human A549 cells after 24 hrs by Western blot analysis; assay type: functional, cell-based
A549 [5] = experiment: Induction of cell cycle arrest in human A549 cells assessed accumulation at G2/M phase at 25 uM after 24 hrs by FITC-labeled anti-BrdU antibody/7AAD staining based FACS calibur flow cytometric analysis (reference value: 12%); assay type: functional
A549 [6] = experiment: Downregulation of cyclinB1 expression in human A549 cells after 24 hrs by Western blot analysis; assay type: functional, cell-based
A549 [7] = experiment: Induction of cell cycle arrest in human A549 cells assessed as accumulation at S phase at 15 uM after 24 hrs by FITC-labeled anti-BrdU antibody/7AAD staining based FACS calibur flow cytometric analysis (reference value: 20.9 %); assay type: functional
A549 [8] = experiment: Induction of cell cycle arrest in human A549 cells assessed as accumulation at G2/M phase at 5 uM after 24 hrs by FITC-labeled anti-BrdU antibody/7AAD staining based FACS calibur flow cytometric analysis (reference value: 12.61 %); assay type: functional
WI-38 [9] = experiment: Upregulation of p21 expression in human WI38 cells at 5 to 25 uM after 24 hrs by Western blot analysis; assay type: ADME, cell-based; conditions: wi-38, 24 h
A549 [10] = experiment: Induction of cell cycle arrest in human A549 cells assessed as accumulation at G2/M phase at 25 uM after 24 hrs by FITC-labeled anti-BrdU antibody/7AAD staining based FACS calibur flow cytometric analysis (reference value: 12.61 %); assay type: functional
A549 [11] = experiment: Induction of cell cycle arrest in human A549 cells assessed as accumulation at sub G1 phase at 25 uM after 24 hrs by FITC-labeled anti-BrdU antibody/7AAD staining based FACS calibur flow cytometric analysis (reference value: 0.82 %); assay type: functional
A549 [12] = experiment: Induction of cell cycle arrest in human A549 cells assessed as accumulation at S phase at 5 uM after 24 hrs by FITC-labeled anti-BrdU antibody/7AAD staining based FACS calibur flow cytometric analysis (reference value: 20.9 %); assay type: functional
A549 [13] = experiment: Induction of cell cycle arrest in human A549 cells assessed as accumulation at S phase at 10 uM after 24 hrs by FITC-labeled anti-BrdU antibody/7AAD staining based FACS calibur flow cytometric analysis (reference value: 20.9 %); assay type: functional
A549 [14] = experiment: Induction of cell cycle arrest in human A549 cells assessed as accumulation at G2/M phase after 24 hrs by FITC-labeled FACS calibur flow cytometric analysis; assay type: functional, cell-based
A549 [15] = experiment: Upregulation of p21 expression in human A549 cells after 24 hrs by Western blot analysis; assay type: functional, cell-based
WI-38 [16] = experiment: Downregulation of cyclinB1 expression in human WI38 cells at 5 to 25 uM after 24 hrs by Western blot analysis; assay type: ADME, cell-based; conditions: wi-38, 24 h
WI-38 [17] = experiment: Downregulation of cdc2 expression in human WI38 cells at 5 to 25 uM after 24 hrs by Western blot analysis; assay type: ADME, cell-based; conditions: wi-38, 24 h

Compound	inhibition of growth at 10 µM (HCT-15)	inhibition of growth at 10 µM (RPMI-8226)	inhibition of growth at 10 µM (SW-620)	inhibition of growth at 10 µM (KM12)	inhibition of growth at 10 µM (Hs-578T)	inhibition of growth at 10 µM (NCI-H23)	inhibition of growth at 10 µM (T47D)	IC50 (A549 [1])	inhibition of growth at 10 µM (SK-MEL-28)	inhibition of growth at 10 µM (K562)	inhibition of growth at 10 µM (CAKI-1)	inhibition of growth at 10 µM (OVCAR-8)	inhibition of growth at 10 µM (SK-OV-3)	inhibition of growth at 10 µM (MDA-MB-435)	inhibition of growth at 10 µM (HCC 2998)	IC50 (WI-38 [2])	inhibition of growth at 10 µM (BT-549)	inhibition of growth at 10 µM (IGROV-1)	inhibition of growth at 10 µM (ACHN)	inhibition of growth at 10 µM (COLO 205)	also measured
COc1ccc(NC(=O)CN2CCN(c3cc4c(cc3F)c(=O)c(C(=O)O)cn4C3CC3)CC2)cc1	0%	3.36%	0%	6.61%	5.32%	7.04%	24.5%	24.8 µM	2.72%	5.67%	0%	6%	17%	1.51%	0%	> 100 µM	5.78%	0%	0%	2.63%	inhibition of growth at 10 µM (SF-539): 5.31%; inhibition of growth at 10 µM (EKVX): 0%
COc1cc(NC(=O)CN2CCN(c3cc4c(cc3F)c(=O)c(C(=O)O)cn4C3CC3)CC2)cc(OC)c1OC	0%	2.8%	0%	0%	4.61%	0%	9.38%	> 100 µM	0%	2.65%	0%	0%	5.77%	0%	0%	> 100 µM	7.42%	0%	0%	0%	inhibition of growth at 10 µM (TK-10): 10.5%; inhibition of growth at 10 µM (SF-539): 0%; inhibition of growth at 10 µM (EKVX): 0%
O=C(CN1CCN(c2cc3c(cc2F)c(=O)c(C(=O)O)cn3C2CC2)CC1)Nc1ccc(Cl)cc1	17%	27.8%	0%	17.1%	12.3%	5.51%	40.9%	14.8 µM	12.9%	31.9%	32.8%	21.2%	36.6%	11.7%	14.2%	> 100 µM	44.2%	6.22%	46.8%	0.11%	Activity (A549 [3]): 1.65%; Activity (A549 [4]): Dose-dependent effect; Activity (A549 [5]): 63.9%; Activity (A549 [6]): Dose-dependent effect; Activity (A549 [7]): 19.8%; Activity (A549 [8]): 13.21%; Activity (WI-38 [9]): Non-Toxic; inhibition of growth at 10 µM (TK-10): 13.9%; Activity (A549 [10]): 64%; Activity (A549 [11]): 2.6%; Activity (A549 [12]): 16.2%; Activity (A549 [13]): 16.7%; Activity (A549 [14]): Dose-dependent effect; Activity (A549 [15]): Dose-dependent effect; Activity (WI-38 [16]): Non-Toxic; Activity (WI-38 [17]): Non-Toxic; inhibition of growth at 10 µM (SF-539): 13.1%; inhibition of growth at 10 µM (EKVX): 6.62%
